According to US20020086427A1, “Inducible eukaryotic expression system that regulates protein translation” (priority 2000, published 2002):

Key:
[1] = system: hEpo expression in C2C12 mouse myoblast cell line; assay: hEpo expression (ELISA of supernatant) in C2C12 myoblasts transfected with stop-codon-mutated hEpo constructs, with or without aminoglycoside; format: cell-based; conditions: for induction of hEpo expression compared to cells not given aminoglycoside: 0.2 mg/ml aminoglycoside, stop-codon-mutated hEpo constructs in C2C12 cells; for read-through of the stop codon mutation: in vitro, C2C12 cells
Procedure: In this example, three different mutated human Epo genes (prepared as described in Example 1) were individually transfected into myoblasts and expression of the genes was subsequently regulated by application of two different aminoglycosides.
The C2C12 mouse myoblast cell line (ATCC) was maintained in DMEM, 10% fetal bovine serum, 1% penicillin/streptomycin and 1% glutamine.
C2C 12 cells were plated at […] on the afternoon before transfection. 15 μg of wildtype or mutated hEpo plasmid DNA was mixed with 50 μl of Lipofectamine (Gibco) and 2 mls of Opti-MEM (Gibco) and incubated at room temperature for 15 minutes for DNA/liposome complexes to form. Cells were washed twice with 5 mils of Opti-MEM. Two ml of Opti-MEM and the DNA/liposome complexes were added and incubated at 37° C. in 5% CO2 for 5 hours. Eight ml of growth medium (DMEM+10% FBS) was added to cells and incubated overnight at 37° C.
The following day, 10 mls of fresh growth medium was added to the cells with or without 0.2 mg/ml of one of two aminoglycosides: G418 (Sigma) or gentamycin sulfate (Sigma). Cells were allowed to incubate for an additional 72 hours and a sample of the supernatant was taken for transgene analysis at 24, 48, and 72 hours.
Supernatants from transfected cells were analyzed for hEpo expression using the Quantikine IV human Epo ELISA kit (R&D Systems). Samples were diluted within the linear range of the assay using specimen diluent and assayed using a microplate reader (Molecular Devices) at 450 nm.
In this example, a series of additional mutated human Epo constructs were prepared, into which stop codon mutations were introduced at different codon positions from those described in Example 1. These constructs were introduced into C2C12 mouse myoblasts as described in Example 2 and the inducibility of hEpo activity from these constructs using either gentamycin sulfate (GS) or G418 was examined as described in Example 2. The constructs were prepared by standard PCR mutagenesis, as described in Example 1, and introduced a stop codon mutation into the human Epo sequence at either nucleotide position 307 (pVR1012hEpo.307), position 434 (pVR1012hEpo.434), position 208 (pVR1012hEpo.208), position 214 (pVR1012hEpo.214) or position 199 (pVR1012hEpo. 199).
Data for constructs with mutations at either nucleotide position 437 (pVR1012hEpo.437), position 454 (pVR1012hEpo.454) or position 526 (pVR1012hEpo.526), prepared as described in Example 1, are included for comparison purposes.

[2] = system: naturally-occurring premature stop codon mutations in the dystrophin gene; conditions: mice; cited from earlier work

| Compound | induction of hEpo expression compared to cells not given aminoglycoside [1] | read-through of the stop codon mutation [1] [%] | effective dosage [2] [mg/kg] |
| --- | --- | --- | --- |
| CN[C@@H]1[C@@H](O)[C@@H](O[C@@H]2[C@@H](O)[C@H](O[C@H]3O[C@H]([C@@H](C)O)[C@@H](O)[C@H](O)[C@H]3N)[C@@H](N)C[C@H]2N)OC[C@]1(C)O [G418] | 20-50 fold | 10 |  |
| gentamycin sulfate | 6-8 fold | 3 | 17 |
